Key:
Format in all cases: cell-based
[1] = system: AMP-activated protein kinase (AMPK) phosphorylation in A549 lung cancer cell lines; test: AMPK phosphorylation by western blotting; conditions: 1 μM for 0, 8, 16 or 24 hours; 0, 0.1, 0.5 or 1 μM for 24 hours; FIG. 4
Procedure: To examine the anticancer effect according to the treatment time or concentration of gossypol, A549 lung cancer cell lines were treated with 1 μM gossypol for 0, 8, 16 or 24 hours, and then the phosphorylation of an AMP-activated protein kinase (AMPK), which is a critical protein for cancer cell division, was analyzed by western blotting.
Also, after the individual treatment of 0, 0.1, 0.5 or 1 μM gossypol for 24 hours, AMPK phosphorylation was also analyzed by western blotting.

[2] = system: cancer cell lines A549/ATCC and NCI-H460; test: SRB analysis of single and combination treatment; conditions: 0.1-50 μM gossypol alone; FIGS. 5 and 6
Procedure: An SRB analysis was performed to examine the effect of gossypol on inhibiting the growth of cancer cell lines. Specifically, according to the doubling time of lung cancer cell lines, for example, A549/ATCC, HOP-62, HOP-92, NCI-H23, NCI-H460 or NCI-H522 cell lines, 5000 to 40000 cells were seeded per well and grown in a 96-well microtiter plate. After 24 hours, the cells were treated with […] of 0, 0.1, 1, 10 or 100 μM gossypol per well, and incubated at 37° C. for 48 hours. Subsequently, […] of 50% cold (4° C.) trichloroacetic acid (TCA) was added to each of the attached cell lines, and […] of 80% TCA was added to each of the suspended cell lines to fix the cells. Following the incubation of the plate at 4° C. for 1 to 3 hours, the TCA solution in the plate was discarded, and then the plate was rinsed with distilled water five times. The plate was dried at room temperature for approximately 12 to 24 hours, and then fixed cells were stained with […] of sulforhodamine B (SRB) at room temperature for 5 minutes. After staining, the plate was washed with 1% glacial acetic acid three times, and dried at room temperature for approximately 12 to 24 hours. The SRB dye was dissolved with 10 mM Trizma base, and an optical density was measured at 515 nm. The effect of gossypol on inhibiting cancer cells was represented as 50% growth inhibition (GI50). […]

A549 cell line = test: ATP level measurement according to gossypol concentration; conditions: 0, 0.1 or 1 μM gossypol for 1 hour; FIG. 2
Procedure: Also, to investigate a change of ATP levels according to the concentration of gossypol, an A549 cell line was treated with 0, 0.1 or 1 μM gossypol for 1 hour, followed by measuring ATP levels.

[3] = system: lung cancer cell lines (A549/ATCC, HOP-62, HOP-92, NCI-H23, NCI-H460, NCI-H522); test: SRB analysis of growth inhibition of lung cancer cell lines; conditions: 48 hours incubation, single treatment, FIG. 3, read-out: GI50 concentration (50% growth inhibition)
Procedure: An SRB analysis was performed to examine the effect of gossypol on inhibiting the growth of cancer cell lines. Specifically, according to the doubling time of lung cancer cell lines, for example, A549/ATCC, HOP-62, HOP-92, NCI-H23, NCI-H460 or NCI-H522 cell lines, 5000 to 40000 cells were seeded per well and grown in a 96-well microtiter plate. After 24 hours, the cells were treated with […] of 0, 0.1, 1, 10 or 100 μM gossypol per well, and incubated at 37° C. for 48 hours. Subsequently, […] of 50% cold (4° C.) trichloroacetic acid (TCA) was added to each of the attached cell lines, and […] of 80% TCA was added to each of the suspended cell lines to fix the cells. Following the incubation of the plate at 4° C. for 1 to 3 hours, the TCA solution in the plate was discarded, and then the plate was rinsed with distilled water five times. The plate was dried at room temperature for approximately 12 to 24 hours, and then fixed cells were stained with […] of sulforhodamine B (SRB) at room temperature for 5 minutes. After staining, the plate was washed with 1% glacial acetic acid three times, and dried at room temperature for approximately 12 to 24 hours. The SRB dye was dissolved with 10 mM Trizma base, and an optical density was measured at 515 nm. The effect of gossypol on inhibiting cancer cells was represented as 50% growth inhibition (GI50).

[4] = system: non-small cell lung cancer (NSCLC) cell lines (A549, H460, Hop-92, H23); test: ATP level measurement with ATP assay kit after gossypol treatment; conditions: 1 μM gossypol for 1 hour; FIG. 1
Procedure: To examine whether energy generation in cancer cells was inhibited by gossypol, which is […], non-small cell lung cancer (NSCLC) cell lines, for example, an A549 cell line, an H460 cell line, an Hop-92 cell line and an H23 cell line, were treated with 1 μM gossypol for 1 hour, followed by measuring ATP levels using an ATP assay kit (Biovision; #K354-100). As a control, normal lung epithelial cells were used.

## Cc1cc2c(C(C)C)c(O)c(O)c(C=O)c2c(O)c1-c1c(C)cc2c(C(C)C)c(O)c(O)c(C=O)c2c1O [gossypol]
[1]
  AMPK phosphorylation: increased depending on the treatment time and concentration
[2]
  growth of the cancer cells, single treatment: hardly inhibited
A549 cell line
  inhibition of the ATP production, concentration dependence: dependent on the concentration of gossypol
[3]
  GI50: 5 µM
[4]
  levels of ATP production: inhibited

Reference: patent publication US10085950B2, “Pharmaceutical composition for cancer treatment containing gossypol and phenformin as active ingredients” (NATIONAL CANCER CENTER, priority 2014, dated 2018)
